Data from US20030166601A1, “Novel colloid synthetic vectors for gene therapy” (priority 1999, published 2003).

Key:
mouse = assay: In vivo transfection with cationic lipid complexes containing fusogenic or steric surfactants; conditions: DOTAP:Chol core complexes; FIG. 7
Procedure: All lipids of a formulation including surfactants were dissolved in an organic solvent such as cyclohexane and mixed together at the desired ratio and then lyophilized to dryness. For example, 45 mg DOTAP and 25 mg cholesterol, or 10 mg GC-030 and 4.74 mg cholesterol were used for DOTAP:Chol and GC-030:Chol, respectively. Double distilled water was added to the lipid cake to give a final concentration of 10 mg/ml of cationic lipid (cholesterol is a neutral lipid that is not counted for calculation of lipid dispersion concentration or later for charge ratio with DNA) and allowed to hydrate at 70 C for 1 hr. The lipid dispersion was extruded through 100 nm pore carbonate membranes (Avanti Polar Lipids Inc) or vortexed for 1 min at room temperature.
Forty microgram of pCILuc was dissolved in 100 μl of 10% glucose and mixed by hand with different amount of lipids dispersion dissolved in 100 μl distilled H2O. The final concentration of Glucose is 5%. The mixing was performed by added the DNA solution to the lipid solution. The charge ratio of lipids to DNA in this mixture was indicated in the text. 200 μl of DNA/lipid complex solutions was injected into mouse tail vein. Each group had 3-5 mice. Five hours later, mice were sacrificed. […] Luciferase activity was determined by using luciferase assay system kit from Promega. […]

BL-6 cells = assay type: cell-based; conditions: polylysine core complexes; FIG. 8
HUVEC cells = assay: Transfection of HUVEC cells with K14RGD/Lipofectin complexes, luciferase; assay type: cell-based; conditions: added to lipofectin core complexes; FIG. 25
Procedure: 20000 HUVEC cells were seeded to each well of a 96 well plate and cultured for 12 hr before transfection. 0 or 2 ug of K14RGD peptide was mixed with indicated amount of Lipofectin from 0.1 ul to 4 ul in 50 ul of serum free medium for 15 min. The mixture was added to 50 ul serum free medium containing 0.5 ug pCIluc2 DNA. The poly-lipoplex was incubated for 30 min before added to the cells. The transfection solution was removed after 3 hr and serum-containing medium was added to the cells.
At 24 hr, luciferase activity was measured with Promega luciferase assay kit according to the recommended procedure.

## CCCCCCCC/C=C\CCCCCCCC(=O)OCCOCC(OCCO)C1OCC(OCCO)C1OCCO (stereo not drawn) [Tween 80]
mouse
  gene transfer in vivo, effect of additive: improved

## GLF GAI EGF IEN GWE GWI DGW YGC KCK KKK KKK KKK KKK K [Example K14-Fuso]
BL-6 cells
  expression, effect of fusogenic peptide: increased expression

## KKK KKK KKK KKK KKS CRG DC [Example K14RGD]
HUVEC cells
  expression, effect of peptide ligand: increased expression
